# Data published in US20090221010A1, “Methods for Prediction and Prognosis of Cancer, and Monitoring Cancer Therapy” (priority 2005, published 2009).
# Test system: non-small cell lung cancer
# Test: Tumor shrinkage measured radiologically in non-small cell lung cancer patients treated with Sorafenib
# Assay type: in vivo, human
# Conditions: non-small cell lung carcinoma; for mean % change in tumor size: measured radiologically
smiles,measurement,setting,value
CNC(=O)c1cc(Oc2ccc(NC(=O)Nc3ccc(Cl)c(C(F)(F)F)c3)cc2)ccn1 [Sorafenib],average tumor shrinkage,"patients who showed stable disease, Sorafenib treatment",5.1%
same,average tumor growth,"patients whose disease progressed, Sorafenib treatment",20.6%
same,mean % change in tumor size,patients with Progressive Disease in spite of Sorafenib treatment,20.6%
same,mean % change in tumor size,patients with Stable Disease on Sorafenib treatment,−5.1%
